According to patent US9790253B2, “OSW-1 analogs and conjugates, and uses thereof” (priority 2011, dated 2017):
“Also recorded” adds a separate entry of the source.

Legend:
CHO-7 cells = test: Antiproliferative activity in CHO-7 cells, lipoprotein-deficient media; assay type: cell-based
Text: FIG. 4B is a bar graph depicting how removal of lipoproteins from the growth medium sensitizes CHO-7 cells to 25-OHC but not 1, 2, or 4a. Mean±s.d. of two individual experiments. Bref A, brefeldin A.
Insig is a chief regulator of SREBP-dependent cholesterol homeostasis, and 25-OHC exerts much of its ability to inhibit cholesterol biosynthesis through its binding to Insig. The possibility that suppression of the antiproliferative activity of the ORPphilins by 25-OHC could be due to displacement of these compounds from NPC1 or Insig was considered. […] In addition, the antiproliferative activity of 1-4a was evaluated in the CHO-7 cell line, which is a cell line adapted to grow in lipoprotein-deficient media. In lipoprotein-deficient media, CHO-7 cells are dependent on Insig-mediated cholesterol biosynthesis for survival, and are therefore sensitive to 25-OHC binding to Insig. Unlike 25-OHC, the antiproliferative activity of 1, 2, and 4a in CHO-7 cells was not enhanced in lipoprotein-deficient media.

[1] = molecular target: T1, OSBP1 protein levels in HCT-116 cells (Homo sapiens, UniProt P22059); test: OSBP1 protein levels by western blotting; assay type: cell-based; details: for reduction in OSBP1 protein levels: 24 h
T1 construct: endogenous in cells; host or cells: HCT-116
T1 sequence (P22059 1-807): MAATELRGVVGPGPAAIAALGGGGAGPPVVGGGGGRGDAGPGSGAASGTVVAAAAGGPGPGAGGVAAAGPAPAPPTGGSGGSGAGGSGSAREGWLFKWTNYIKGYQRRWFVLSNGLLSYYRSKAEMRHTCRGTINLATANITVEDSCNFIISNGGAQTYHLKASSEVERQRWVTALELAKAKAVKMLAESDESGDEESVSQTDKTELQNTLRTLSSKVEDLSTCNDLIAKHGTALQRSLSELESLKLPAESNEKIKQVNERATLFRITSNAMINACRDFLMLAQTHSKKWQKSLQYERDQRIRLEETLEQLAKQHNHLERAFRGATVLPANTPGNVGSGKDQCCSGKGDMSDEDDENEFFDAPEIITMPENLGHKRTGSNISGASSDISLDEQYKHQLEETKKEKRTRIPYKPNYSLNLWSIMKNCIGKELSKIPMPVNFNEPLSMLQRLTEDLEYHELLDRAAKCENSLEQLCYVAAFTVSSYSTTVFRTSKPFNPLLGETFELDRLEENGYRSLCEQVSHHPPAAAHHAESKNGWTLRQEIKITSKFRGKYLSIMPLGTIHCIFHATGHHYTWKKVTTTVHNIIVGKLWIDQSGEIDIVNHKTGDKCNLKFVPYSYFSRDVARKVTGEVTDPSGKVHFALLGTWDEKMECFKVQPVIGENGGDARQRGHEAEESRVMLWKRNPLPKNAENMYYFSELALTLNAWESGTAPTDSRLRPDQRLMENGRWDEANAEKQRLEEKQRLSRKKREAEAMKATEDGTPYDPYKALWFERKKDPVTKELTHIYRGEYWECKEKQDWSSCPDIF
Experimental: A possible explanation for this observation was that treatment with 1 and 2 caused a decrease in OSBP1 levels. Treatment of HCT-116 cells with vehicle (DMSO) or 25-OHC (10 μM) had no effect on OSBP1 levels, as assessed by western blotting (FIG. 6A). However, treatment with 1 or 2 induced a dramatic, time-dependent reduction of OSBP1 levels (FIG. 6A). For example, 50 nM of 1 or 10 nM of 2 caused an approximately 75% reduction in OSBP1 protein levels at 24 h in HCT-116 cells (FIG. 6A), with a similar effect recorded in A549 cells. […] OSBP1 levels were determined using both an antibody recognizing the far N-terminus of OSBP1 (FIG. 6) and also an antibody recognizing the C-terminus of OSBP1.
One possible explanation for the reduction in OSBP1 levels upon treatment with 1 and 2 was proteasome-dependent degradation. To determine whether degradation of OSBP1 was proteasome dependent, proteasome inhibitors MG-132 or lactacystin were co-administered with 1 and 2. […] Similar results were obtained in A549 cells.

[2] = tested on: OSBP1 localization in HCT-116 cells; test: OSBP1 localization by immunofluorescence microscopy, HCT-116; assay type: cell-based, human; details: 4 h treatment
Experimental: Immunofluorescence microscopy. HCT-116 or A549 (adenocarcinomic human alveolar basal epithelial) cells were plated on coverslips in 6-well plates. After 72 h, the culture media was removed and replaced with media containing either compound or vehicle control. At the indicated time-points, the cells were fixed for 10 min using 3.7% formaldehyde in PBS. The coverslips were washed with PBS and permeabilized for 5 min with 0.5% Triton X-100 in PBS. Following PBS washing, the coverslips were blocked for 30 min using Image-iT™ FX (Invitrogen), washed with PBS, and then blocked for 30 min at room temperature (RT) with 1% BSA in PBS (BSA/PBS). The coverslips were then incubated overnight at 4° C. with a primary antibody solution in BSA/PBS. The coverslips were washed with BSA/PBS and incubated for 60 min at RT with Alexa Fluor®-conjugated secondary antibodies (Invitrogen) in BSA/PBS, with the final 30 min including incubation with Hoescht 33258. The coverslips were then washed sequentially with BSA/PBS, PBS, and water and finally mounted on microscope slides using Aqua Poly/Mount (Polysciences Inc.). Imaging data was acquired using Zeiss LSM 510 META scanning confocal microscope.
Although the function of OSBP1 is not yet fully elucidated, several cellular activities have been observed. For instance, OSBP1 translocates from cytoplasmic sites to the trans-Golgi network (TGN) upon addition of 25-OHC to cells. HCT-116 cells were treated with ORPphilins for short time periods (4 h) and the effects on OSBP1 localization monitored using immunofluorescence microscopy.
OSBP1 (green) and trans-Golgi protein P230 (red) were visualized in HCT-116 cells using indirect immunofluorescence microscopy. Cells were treated with compound for 4 h, fixed with 3.7% formaldehyde/PBS, washed, and permeabilized using 0.5% Triton X-100 in PBS. Proteins were labelled using specific primary antibodies against OSBP1 and P230 overnight at 4° C. After washing, cells were treated with Alexa Fluor 488 and Alexa Fluor 546 secondary antibodies for 1 h at RT.

Row | Molecule | antiproliferative activity in lipoprotein-deficient media (CHO-7 cells) | reduction in OSBP1 protein levels ([1]; 50 nM) | OSBP1 localization [2] | OSBP1 localization ([2]; listed as 1) | effect on OSBP1 levels ([1]; 10 μM) | suppression of OSBP1 level reduction caused by 2 ([1]; 25-OHC (10 M or 20 M) with 2 (1 nM)) | suppression of OSBP1 level reduction caused by 2 ([1]; 5 μM with 10 nM of 2) | effect on OSBP1 levels, compound alone ([1]; concentration not given) | reduction in OSBP1 protein levels ([1]; 10 nM)
1 | C[C@@H]1[C@]2(O[C@H]3C=C4[C@@H]5CC[C@H]6Cc7nc8c(nc7C[C@]6(C)[C@H]5C[C@@H](O)[C@]4(C)[C@]31O)C[C@@H]1CC[C@H]3C4=CC[C@@H]5[C@H](C)[C@@]6(OC[C@]45C(=O)C[C@@H]3[C@@]1(C)C8)OC(C)(C)C[C@H]6O)O[C@](C)(CO)C[C@H]2O [cephalostatin 1, Cephalostatin 1] | not enhanced | approximately 75% | OSBP1 occupying a perinuclear position with little co-localization of the dispersed p230 marker | partially localize to the plasma membrane | – | – | – | – | –
2 | C[C@H](CCCC(C)(C)O)[C@H]1CC[C@H]2[C@@H]3CC=C4C[C@@H](O)CC[C@]4(C)[C@H]3CC[C@]12C [Compound 25-OHC, 25-hydroxycholesterol] | – | – | – | – | no effect; also recorded: did not reduce | significantly suppressed | – | – | –
3 | schweinfurthin A | not enhanced | – | caused OSBP1 to accumulate at perinuclear positions with a large degree of co-localization with the trans-Golgi marker p230 | – | – | – | completely suppressed | no effect | –
4 | COc1ccc(C(=O)O[C@H]2[C@H](O[C@@H]3[C@@H](OC(C)=O)[C@H](O[C@H]4C[C@H]5[C@@H]6CC=C7C[C@@H](O)CC[C@]7(C)[C@H]6CC[C@]5(C)[C@@]4(O)[C@H](C)C(=O)CCC(C)C)OC[C@@H]3O)OC[C@@H](O)[C@@H]2O)cc1 [OSW-1] | not enhanced | – | caused OSBP1 to localize to a perinuclear position that did not co-localize with p230 | – | – | – | – | – | approximately 75%
